Measured values from patent US5852007A, “Cysteine and serine protease inhibitors containing D-amino acid at the P2 position, methods of making same, and methods of using same” (priority 1997, dated 1998).
Like-named read-outs stand apart in the source and are kept apart here. Square brackets hold non-standard residues; d marks the D form. Peptide text beside a SMILES is read from it. * marks the point of attachment. Abu = CC[C@H](N)C(=O)O; Bn = c1ccc(C*)cc1; Ms = CS(=O)(=O)*

How the values were obtained:
Format in all cases: biochemical
[1] = target: T1, Recombinant human calpain I (Homo sapiens, UniProt P07384); test: Inhibition of calpain I activity
T1 construct: made in house
T1 sequence (P07384 1-714): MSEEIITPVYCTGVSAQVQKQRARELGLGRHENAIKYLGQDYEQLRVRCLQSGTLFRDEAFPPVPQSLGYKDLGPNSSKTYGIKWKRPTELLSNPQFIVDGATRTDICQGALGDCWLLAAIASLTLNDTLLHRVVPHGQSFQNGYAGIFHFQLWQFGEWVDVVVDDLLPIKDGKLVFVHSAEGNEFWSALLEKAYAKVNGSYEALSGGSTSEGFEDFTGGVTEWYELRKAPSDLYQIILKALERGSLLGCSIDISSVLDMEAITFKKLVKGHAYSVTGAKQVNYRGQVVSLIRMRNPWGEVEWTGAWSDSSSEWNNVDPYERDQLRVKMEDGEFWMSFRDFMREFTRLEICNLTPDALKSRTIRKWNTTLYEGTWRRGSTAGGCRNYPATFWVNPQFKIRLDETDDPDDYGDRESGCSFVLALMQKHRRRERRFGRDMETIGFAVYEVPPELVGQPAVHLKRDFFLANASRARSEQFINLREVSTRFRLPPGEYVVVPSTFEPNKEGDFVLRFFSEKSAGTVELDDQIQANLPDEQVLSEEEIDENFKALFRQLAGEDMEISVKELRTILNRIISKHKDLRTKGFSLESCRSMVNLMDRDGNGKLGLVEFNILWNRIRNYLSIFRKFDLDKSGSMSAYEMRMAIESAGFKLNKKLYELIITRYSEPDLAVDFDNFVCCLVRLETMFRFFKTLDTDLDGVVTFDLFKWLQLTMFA
Description: To evaluate inhibitory activity, stock solutions (40 times concentrated) of exemplary compounds of the invention were prepared in 100% anhydrous DMSO and 5 μL of each inhibitor preparation were aliquoted into each of three wells of a 96-well plate. Recombinant human calpain I, prepared by the method of Meyer et al. (Biochem. […] To start the reaction, 20 μL of 50 mM CaCl2 in assay buffer was added to all wells of the plate, excepting three, which were used as background signal baseline controls. Substrate hydrolysis was monitored every 5 minutes for a total of 30 minutes. […] Inhibition of calpain I activity was calculated as the percent decrease in the rate of substrate hydrolysis in the presence of inhibitor (VI) relative to the rate in its absence (VO). Comparison between VO and VI was made within the linear range for substrate hydrolysis. For screening, compounds were tested at 10, 1.0, and 0.1 μM. […] The results were plotted as % inhibition versus log inhibitor concentration and the IC50 was calculated from linear regression of the data. Apparent second order rate constants were determined from analysis of reaction progress curves under pseudo-first order conditions. Each determination represents the means of three or more independent single cuvette analyses continually monitored via a Perkin-Elmer LS50B spectrofluorimeter. The rate of inhibition of hydrolysis was obtained by fitting the curve to the exponential equation (1): […]

cathepsin B = target: T2, cathepsin B (Homo sapiens, UniProt P07858); test: Inhibition of cathepsin B; settings: for inhibition at 1 µM: read-out: Cat B % I @ 1 uM; for IC50: read-out: Cat B IC50
T2 construct: purchased Calbiochem 219364
Description: (§1) Additionally,the order of reagents added to the plate was altered because both enzymes are constitutively active. Following inhibitor addition to the plates, appropriate 2× concentrated stock dilutions of the enzyme preparations were made in assay buffer and 100 μl added to each well. The assay was initiated by addition of 100 μl of 2× concentrated stock dilution of substrate in assay buffer.

cathepsin L = target: T3, cathepsin L (Homo sapiens, UniProt P07711); test: Inhibition of cathepsin L; settings: for inhibition at 1 µM / Cat L % I @ 1 uM: Table III; for inhibition at 1 µM: read-out: Cat L % I @ 1 uM; for IC50: Table II, read-out: Cat L IC50
T3 construct: purchased Calbiochem 219402
T3 sequence (P07711 114-288 limits assumed): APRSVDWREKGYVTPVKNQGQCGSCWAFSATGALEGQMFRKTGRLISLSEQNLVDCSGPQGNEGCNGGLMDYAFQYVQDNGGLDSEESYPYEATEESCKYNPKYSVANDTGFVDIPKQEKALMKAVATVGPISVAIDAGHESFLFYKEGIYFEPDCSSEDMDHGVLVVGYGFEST
T3 sequence (P07711 292-333 limits assumed): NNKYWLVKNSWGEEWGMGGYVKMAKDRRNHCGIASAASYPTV
Description: as §1

thrombin = target: T4, thrombin (Homo sapiens, UniProt P00734); test: Inhibition of thrombin; settings: 10 uM; for inhibition at 10 µM: read-out: Thrombin % I @ 10 uM
T4 construct: purchased Sigma Chem. Co. T-7009

α-chymotrypsin = target: T5, α-chymotrypsin (Bos taurus, UniProt P00766); test: Inhibition of α-chymotrypsin; settings: for inhibition at 10 µM: read-out: Chymotrypsin % I @ 10 uM
T5 construct: purchased Sigma Chem. Co. C-3142
Description: Additionally, because α-chymotrypsin is not a calcium sensitive enzyme and is constitutively active, following addition of inhibitor stocks to the 96 well plates, 100 μl of a 2-fold concentrated stock of enzyme in dilution buffer was first added and the reaction started by addition of 100 μl of a 2-fold concentrated stock of substrate in assay buffer. Substrate hydrolysis was monitored every 5 minutes up to 30 minutes using a Fluoroskan II ([…]).

| Structure (SMILES) | IC50 ([1]; Table III) [nM] | inhibition at 1 µM (cathepsin L) [%] | inhibition at 0.1 µM ([1]; Table III) [%] | inhibition at 1 µM (cathepsin B; Table III) [%] | inhibition at 10 µM (thrombin; Table III) [%] | inhibition at 10 µM (α-chymotrypsin; Table III, 10 uM) [%] | further results |
| --- | --- | --- | --- | --- | --- | --- | --- |
| CS(=O)(=O)N1Cc2ccccc2CC1C(=O)N[C@H](C=O)Cc1ccccc1 (single isomer, unassigned) [Compound 95] | 278 | 100 |  |  |  |  | Calpain % I @ 0.1 uM ([1]; Table III): 17%; Cat B % I @ 1 uM (cathepsin B; Table III): 38%; Thrombin % I @ 10 uM (thrombin; Table III): 1%; Chymotrypsin % I @ 10 uM (α-chymotrypsin; Table III, 10 uM): 0% |
| CS(=O)(=O)N1Cc2ccccc2CC1C(=O)N[C@H](C=O)Cc1ccccc1 (single isomer, unassigned) [Compound 96] | 174 |  |  |  |  |  | Calpain % I @ 0.1 uM ([1]; Table III): 49%; Cat B % I @ 1 uM (cathepsin B; Table III): 90%; Cat L % I @ 1 uM (cathepsin L): 100%; Thrombin % I @ 10 uM (thrombin; Table III): 0%; Chymotrypsin % I @ 10 uM (α-chymotrypsin; Table III, 10 uM): 14% |
| CC(C)(C)OC(=O)N[C@H](CC(=O)N1CCc2ccccc2C1)C(=O)N[C@H](C=O)Cc1ccccc1 [Compound 8, (R)-2-THIQ-C(=O)CH2 CH(NHBoc)C(=O)-Phe--H] |  |  |  |  |  |  | IC50 ([1]; Table II): ~20000 nM; IC50 (cathepsin L): 24000 nM; inhibition at 10 µM (thrombin; Table II): 0%; inhibition at 10 µM (α-chymotrypsin; Table II, 10 uM): 32% |
| CC(=O)N[C@H](CC(=O)N1CCc2ccccc2C1)C(=O)N[C@H](C=O)Cc1ccccc1 [Compound 9, 2-THIQ-C(=O)CH2 CH(NHC(=O)CH3)C(=O)-Phe--H] |  |  |  |  |  |  | IC50 ([1]; Table II): 83 nM; IC50 (cathepsin B; Table II): 11000 nM; IC50 (cathepsin L): 2000 nM; inhibition at 10 µM (thrombin; Table II): 0%; inhibition at 10 µM (α-chymotrypsin; Table II, 10 uM): 2% |
| CS(=O)(=O)N[C@H](CC(=O)N1CCc2ccccc2C1)C(=O)N[C@H](C=O)Cc1ccccc1 [Compound 14, 2-THIQ-C(=O)CH2 CH(NHS(=O)2 CH3)C(=O)-Phe--H] |  |  |  |  |  |  | IC50 ([1]; Table II): 20 nM; IC50 (cathepsin B; Table II): 145 nM; IC50 (cathepsin L): 56 nM; inhibition at 10 µM (thrombin; Table II): 0%; inhibition at 10 µM (α-chymotrypsin; Table II, 10 uM): 11% |
| CC(=O)N[C@H](CSCc1ccccc1)C(=O)N[C@H](C=O)Cc1ccccc1 [Compound 25, BnS--CH2 CH(NHC(=O)CH3)C(=O)-Phe--H] (Ac-[dC](Bn)-Phe-aldehyde) |  |  |  |  |  |  | IC50 ([1]; Table II): 26 nM; IC50 (cathepsin B; Table II): 5000 nM; IC50 (cathepsin L): 48 nM; inhibition at 10 µM (thrombin; Table II): 0%; inhibition at 10 µM (α-chymotrypsin; Table II, 10 uM): 3% |
| O=C[C@H](Cc1ccccc1)NC(=O)[C@@H](COCc1ccccc1)NC(=O)c1ccccc1 [Compound 44] | 280 | 100 | 29 | 62 | 7 | 0 |  |
| O=C[C@H](Cc1ccccc1)NC(=O)[C@@H](COCc1ccccc1)NC(=O)C(c1ccccc1)c1ccccc1 [Compound 45] | 85 | 100 | 55 | 100 | 7 | 5 |  |
| CCS(=O)(=O)N[C@H](COCc1ccccc1)C(=O)N[C@H](C=O)Cc1ccccc1 [Compound 50] | 12 | 98 | 95 | 99 | 9 |  | inhibition at 10 µM (α-chymotrypsin): 15% |
| Cn1cnc(S(=O)(=O)N[C@H](COCc2ccccc2)C(=O)N[C@H](C=O)Cc2ccccc2)c1 [Compound 63] | 75 | 100 | 41 |  | 1 | 40 |  |
| CC(C)C[C@@H](C=O)NC(=O)[C@@H](CC(C)C)NS(C)(=O)=O [Compound 87] | 95 | 96 | 23 | 86 |  |  |  |

Further molecules by falling IC50 ([1]; Table III), results first:

| IC50 ([1]; Table III) [nM] | inhibition at 1 µM (cathepsin L) [%] | inhibition at 0.1 µM ([1]; Table III) [%] | inhibition at 1 µM (cathepsin B; Table III) [%] | inhibition at 10 µM (thrombin; Table III) [%] | inhibition at 10 µM (α-chymotrypsin; Table III, 10 uM) [%] | Structure (SMILES) | further results |
| --- | --- | --- | --- | --- | --- | --- | --- |
| 67 | 100 | 63 | 97 |  |  | CS(=O)(=O)NC(CCSCc1ccccc1)C(=O)N[C@H](C=O)Cc1ccccc1 (single isomer, unassigned) [Compound 107] | Thrombin % I @ 10 uM (thrombin; Table III): 2%; Chymotrypsin % I @ 10 uM (α-chymotrypsin; Table III, 10 uM): 11% |
| 50 | 100 | 67 | 42 | 2 | 0 | CC[C@@H](C=O)NC(=O)[C@@H](COCc1ccccc1)NS(C)(=O)=O [Compound 41] (Ms-[dS](Bn)-[Abu]-aldehyde) |  |
| 32 | 100 | 92 | 100 | 21 | 3 | CC(=O)Nc1ccc(S(=O)(=O)N[C@H](COCc2ccccc2)C(=O)N[C@H](C=O)Cc2ccccc2)cc1 [Compound 51] | IC50 (cathepsin B; Table III): 14 nM |
| 31 | 100 | 87 | 99 | 3 | 0 | O=C[C@H](Cc1ccccc1)NC(=O)[C@@H](COCc1ccccc1)NS(=O)(=O)c1ccccc1 [Compound 48] | IC50 (cathepsin B; Table III): 11 nM |
| 28 | 100 | 93 | 100 | 10 | 0 | O=C[C@H](Cc1ccccc1)NC(=O)[C@@H](COCc1ccccc1)NS(=O)(=O)c1ccc2ccccc2c1 [Compound 52] | IC50 (cathepsin B; Table III): 4 nM |
| 27 | 100 | 75 | 99 | 4 | 1 | Cc1ccc(S(=O)(=O)N[C@H](COCc2ccccc2)C(=O)N[C@H](C=O)Cc2ccccc2)cc1 [Compound 49] |  |
| 25 |  |  |  |  |  | CS(=O)(=O)NC(CCSCc1ccccc1)C(=O)N[C@H](C=O)Cc1ccccc1 (single isomer, unassigned) [Compound 108] | Calpain % I @ 0.1 uM ([1]; Table III): 83%; Cat B % I @ 1 uM (cathepsin B; Table III): 96%; Cat L % I @ 1 uM (cathepsin L): 100%; Thrombin % I @ 10 uM (thrombin; Table III): 0%; Chymotrypsin % I @ 10 uM (α-chymotrypsin; Table III, 10 uM): 0% |
| 24 | 100 | 90 | 100 | 15 | 6 | O=C[C@H](Cc1ccccc1)NC(=O)[C@@H](COCc1ccccc1)NS(=O)(=O)c1ccc(F)cc1 [Compound 46] |  |
| 17 | 96 | 87 | 90 | 7 | 14 | CC(=O)N[C@H](COCc1ccccc1)C(=O)N[C@H](C=O)Cc1ccccc1 [Compound 42] |  |
| 12 | 68 | 95 | 98 | 0 | 3 | C[C@H](OCc1ccccc1)[C@@H](NS(C)(=O)=O)C(=O)N[C@H](C=O)Cc1ccccc1 [Compound 43] (Ms-[dT](Bn)-Phe-aldehyde) | IC50 (cathepsin B; Table III): 58 nM |
| 9 | 98 | 91 | 96 | 6 | 2 | CN(C)S(=O)(=O)N[C@H](COCc1ccccc1)C(=O)N[C@H](C=O)Cc1ccccc1 [Compound 47] |  |
